Results taken from US20220008508A1, “RELAXIN RECEPTOR 1 FOR USE IN TREATMENT AND PREVENTION OF HEART FAILURE” (Universität Heidelberg, priority 2018, published 2022).

Key:
[1] = system: adult mouse cardiomyocytes expressing RXFP1; assay: Ca2+ transient measurement in adult cardiomyocytes of RXFP1 transgenic mice; type: cell-based; settings: isolated TG adult cardiomyocytes, 100 nM RLN, 1 minute
Text: Adult mouse cardiac cells were isolated a modified protocol from Harding et al. (Harding et al., 1990, Cardioscience. 1: 49-54). The mouse heart was perfused with digestion buffer in the Langendorff technique, thus enabling dissociation of single cardiac cells. An adult male mouse (30-35 g) was quickly euthanatized by cervical dislocation. Incision areas on the abdomen and thorax were sterilized with 70% ethanol and opened with lateral cuts by scissors. The abdominal Vena Cava was exposed, and heparin was given I.V. Then the heart was exposed and cut out with a large portion of the aorta and quickly placed into a 6 cm Petri dish with 10 mL of room temperature perfusion buffer. The aorta was slid onto the cannula of the Langendorff apparatus and fixed with a double knots surgical suture. Perfusion was started immediately with a drip rate of ˜3.5 mL/min. Filling of the coronary arteries was checked and evaluated in order to determine, if the heart was correctly positioned on the cannula. In order to remove residual serum traces and free Ca2+, the heart was washed with perfusion buffer for 1 minute. After that the heart was perfused with digestion buffer containing a mixture of liberase (mixture of collagenases) and trypsin solution for 10 minutes. The perfusion was stopped, when the heart became flaccid and easily penetrable by fine tip forceps. […]
Intracellular Ca^2+ transients were measured according to Yu et al. with modifications to fit available apparatus (Yu et al., 2013, J. Biol. Chem. 288(31): 22481-22492). […] Next the dish was protected from light and connected to an electrode system on the table of a high throughput inverted fluorescence microscope (Cytocypher). […] The alternative measurement of the bispectral emission (340 nm/380 nm) was performed with the fluorescence microscope for baseline and after 1, 5, and 10 minutes stimulation with NaCl, 100 nM RLN, and 10 nM ISO. The transients were calculated using transient calculated software from the cytocypher. The following parameters were analyzed: a) Peak Height, b) Departure velocity, and c) Return velocity.

[2] = system: TAC-induced heart failure in mice; assay: TAC heart failure model, echocardiography after huRXFP1 gene therapy with or without RLN pumps; type: in vivo, C57BL/6 mice; settings: day 55, control AAV9.LUC virus, RLN pump
Procedure: Heart failure model was generated by transverse aortic constriction operation (TAC) previously described (Rockman et al., 1991, Proc. Natl. Acad. Sci. 88: 8277-8281). 8 weeks old C57BL/6 mice were ordered and weighted prior to the operation. TAC operation was performed on day 0 using 26-gauge blunt needle effectively reducing the diameter of the transverse aorta to approximately 0.46 mm (Rockman et al., 1994, Proc. Natl. Acad. Sci. 91(7): 2694-2698). Cardiac function measurements were performed before Transverse aortic Constriction (TAC) operation (day −2) before virus infusion (day 7), before pump implantation (day 28), and at 2-month follow up time point (day 55) (FIG. 7A). […] Osmotic pumps were implanted on day 28 with animals randomized to get either saline or recombinant relaxin pumps. Follow up assessments were performed on day 55 and the animals were sacrificed 3 days later. In addition, 17 mice served as control animals that were sham operated followed by either saline or recombinant relaxin pumps implantation.
Echocardiography was performed using Vevo 2100, VisualSonics. The mice were shaved on the chest and held in prone position. […] The ejection fraction (EF) was calculated from 6 consecutive heartbeats in the M-mode using LV trace function.

[3] = system: TAC-induced heart failure in mice; assay: TAC heart failure model, echocardiography after AAV9-RXFP1 (rat) gene therapy with or without RLN pumps; type: in vivo, C57BL/6 mice; settings: day 55, control AAV9.LUC virus, RLN pump
Procedure: Transverse aortic constriction (TAC) operation was previously described (Rockman et al., 1991, Proc. Natl. Acad. Sci. 88: 8277-8281). TAC model was used as heart failure model. 8 weeks old C57BL/6 mice were weighted prior to the operation. TAC operation was performed on day 0 using 26-gauge blunt needle effectively reducing the diameter of the transverse aorta to approximately 0.46 mm (Rockman et al., 1994, Proc. Natl. Acad. Sci. 91(7): 2694-2698). Cardiac function was assessed by echocardiography (Vevo 2100 VisualSonics) before TAC operation (day −2), before virus infusion (day 7), before pump implantation (day 28), and at 2-month follow up (day 55) (FIG. 1A and B). […] Osmotic pumps (Alzet 2004) were implanted on day 28 with animals randomized to get either saline or recombinant relaxin pumps. Follow up assessments were performed on day 55 and the animals were sacrificed 3 days later. In addition, 17 mice served as control animals which underwent sham operation, followed by either saline or recombinant relaxin pump implantation.
Echocardiography was performed using Vevo 2100, VisualSonics. The mice were shaved and held in prone position. […] The ejection fraction (EF), fractional shortening (FS), left ventricular internal diameter (LVIDd) and heart rate (HR) were calculated from 6 consecutive heartbeats in the M-mode using LV trace function.

RLN: recombinant relaxin H2 peptide hormone, RXFP1 agonist
Ca2+ transient Departure velocity [1]: trend toward an increase | Ca2+ transient Peak Height [1]: trend toward an increase | Ca2+ transient Return velocity [1]: trend toward an increase | Ejection fraction (EF) [2]: 50.02±18.31% | Ejection fraction (EF) [3]: 47.79±13.38% | Fractional shortening (FS) [3]: 23.98±7.64
